Experimental data as given in patent US20080274892A1, “Novel Haloalkylsulfonanilide Derivative, Herbicide, and Method of Use Thereof” (priority 2005, published 2008).

Key:
bulrush [1] = assay: Test Example 1: herbicidal efficacy on rice paddy weeds pre-emergence; assay type: in vivo, Scirpus juncoides; conditions: 21 days
false pimpernel [2] = assay: as above; assay type: in vivo, Lindernia pyxidaria; conditions: 21 days
barnyard glass = assay: Test Example 2: herbicidal efficacy on rice paddy weeds post-emergence; assay type: in vivo, Echinochloa crus-galli; conditions: dosage 1000 g/ha; post-emergence, one leaf stage; 21 days after treatment
In short: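 Plastic pots of 75 cm^2 were filled with clay loam soil and sown with barnyard glass and bulrush seeds, then topped with 75 cm^3 soil containing false pimpernel seeds. The pots were flooded to 5 cm water depth and held in a hot house. Twenty-one days after treatment, herbicidal efficacy was graded against an untreated control.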

[3] = test system: transplanted paddy rice plant and Bulrush; assay: Test Example 5: selectivity between transplanted paddy rice plant and weeds; assay type: in vivo; conditions: (highest dosage with no phytotoxicity to paddy rice)/(lowest dosage with effective level 4 on Bulrush); rice 3000-100 g/ha, Bulrush 300-10 g/ha; 21 days
Protocol: (§1) The standard of judgment for herbicidal efficacy (degree of growth inhibition) and phytotoxicity 4 . . . 90%-100% of herbicidal efficacy or phytotoxicity 3 . . . 70%-89% of herbicidal efficacy or phytotoxicity 2 . . . 40%-69% of herbicidal efficacy or phytotoxicity 1 . . . 1%-39% of herbicidal efficacy or phytotoxicity 0 . . . 0% of herbicidal efficacy or phytotoxicity
Phytotoxicity test for transplanted paddy rice plants was carried out, as in Test Example 3, by the treatment of 3000, 1000, 300 and 100 (g/ha of the active ingredient) dosage, and herbicidal test to weed post-emergence was carried out to Burlush seeded as in Test Example 2 treating at 300, 100, 30 and 10 (g/ha) dosage. The pots were kept in a hot house for 21 days after the treatment, and the phytotoxicity and the herbicidal efficacy was investigated and evaluated according to the standard in Test Example 1 by comparing with the untreated control. […] Further, as a comparative compound, the compound No. 6-28 described in the JP-A-2004-107322 was used.

[4] = test system: paddy rice plant (cultivar: Nihonbare); assay: Test Example 3: phytotoxicity test for transplanted paddy rice plant; assay type: in vivo; conditions: transplanted rice, 21 days after treatment
In short: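 Clay loam soil was placed in a 75 cm^2 plastic pot and flooded to a water depth of 5 cm. Two Nihonbare paddy rice plants at the two-leaf stage were transplanted 1 cm deep and grown in a hot house. After treatment, pots stayed in the hot house for 21 days, and phytotoxicity was then graded against an untreated control.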

false pimpernel [5] = assay: Test Example 2: herbicidal efficacy on rice paddy weeds post-emergence; assay type: in vivo, Lindernia pyxidaria; conditions: post-emergence, one leaf stage, 21 days after treatment
bulrush [6] = assay: Test Example 4: low dosage test for rice paddy weeds; assay type: in vivo, Scirpus juncoides; conditions: 300 g/ha as an active ingredient; plants treated at the one leaf stage; 21 days after treatment; vs untreated control
Text: as §1
A 75 cm^2 plastic pot was filled with soil (clay loam) and planted seeds of bulrush which is a rice paddy weed. After covering the top with 75 cm^3 soil, the pot was filled with water so that the soil submerged under 5 cm depth of water and kept in a hot house. The test plants, at the one leaf stage, were treated with the solution of a formulation containing the compound of the present invention as an active ingredient at the predetermined effective dosage (300 g/ha as an active ingredient). The pots were kept in a hot house for 21 days after the treatment and the herbicidal efficacy was investigated and evaluated according to the standard in Test Example 1 by comparing with the untreated control. Further, as a comparative compound, the compound No. 6-28 described in the JP-A-2004-107322 was used.

bulrush [7] = assay: Test Example 2: herbicidal efficacy on rice paddy weeds post-emergence; assay type: in vivo, Scirpus juncoides; conditions: post-emergence, one leaf stage, 21 days after treatment
[8] = dosage 1000 g/ha, treated 5 days after transplantation

SMILES | Bulrush pre (herbicidal efficacy grade) (bulrush [1]; dosage 1000 g/ha) | False pimpernel pre (herbicidal efficacy grade) (false pimpernel [2]; dosage 1000 g/ha) | Burnyard grass post (herbicidal efficacy grade) (barnyard glass) | Selective Index [3] | Phytotoxicity to paddy rice [4, 8] | False pimpernel post (herbicidal efficacy grade) (false pimpernel [5]; dosage 1000 g/ha) | Herbicide effect to Bulrush (bulrush [6]) | Bulrush post (herbicidal efficacy grade) (bulrush [7]; dosage 1000 g/ha) | Bulrush pre (herbicidal efficacy grade) (bulrush [1]; dosage 300 g/ha) | False pimpernel pre (herbicidal efficacy grade) (false pimpernel [2]; dosage 300 g/ha) | Phytotoxicity to paddy rice ([4]; dosage 300 g/ha) | False pimpernel post (herbicidal efficacy grade) (false pimpernel [5]; dosage 300 g/ha) | Bulrush post (herbicidal efficacy grade) (bulrush [7]; dosage 300 g/ha)
CCC1(C)CN(Cc2ccccc2N(C(=O)OCC(C)C)S(=O)(=O)C(F)(F)F)C(=S)O1 (stereo not shown) [1-181] | 4 (90%-100% of herbicidal efficacy or phytotoxicity) | 4 (90%-100% of herbicidal efficacy or phytotoxicity) | 4 (90%-100% of herbicidal efficacy or phytotoxicity) | 10 | 1 (1%-39% of herbicidal efficacy or phytotoxicity) | 4 (90%-100% of herbicidal efficacy or phytotoxicity) | 4 (90%-100% of herbicidal efficacy or phytotoxicity) | 4 (90%-100% of herbicidal efficacy or phytotoxicity) |  |  |  |  | 
CCCCCCOC(=O)N(c1ccccc1CN1CC(C)(C)OC1=O)S(=O)(=O)C(F)(F)F [1-93] | 4 (90%-100% of herbicidal efficacy or phytotoxicity) | 4 (90%-100% of herbicidal efficacy or phytotoxicity) | 4 (90%-100% of herbicidal efficacy or phytotoxicity) | ≧30 | 1 (1%-39% of herbicidal efficacy or phytotoxicity) | 4 (90%-100% of herbicidal efficacy or phytotoxicity) | 4 (90%-100% of herbicidal efficacy or phytotoxicity) | 4 (90%-100% of herbicidal efficacy or phytotoxicity) |  |  |  |  | 
CC(C)COC(=O)N(c1ccccc1CN1CC2(CCC2)OC1=O)S(=O)(=O)C(F)(F)F [1-86] | 4 (90%-100% of herbicidal efficacy or phytotoxicity) | 4 (90%-100% of herbicidal efficacy or phytotoxicity) | 4 (90%-100% of herbicidal efficacy or phytotoxicity) | 10 | 1 (1%-39% of herbicidal efficacy or phytotoxicity) | 4 (90%-100% of herbicidal efficacy or phytotoxicity) | 4 (90%-100% of herbicidal efficacy or phytotoxicity) | 4 (90%-100% of herbicidal efficacy or phytotoxicity) |  |  |  |  | 
O=C1OC(C2CC2)(C2CC2)CN1Cc1ccccc1NS(=O)(=O)C(F)(F)F [1-170] | 4 (90%-100% of herbicidal efficacy or phytotoxicity) | 4 (90%-100% of herbicidal efficacy or phytotoxicity) |  | 10 | 2 (40%-69% of herbicidal efficacy or phytotoxicity) | 4 (90%-100% of herbicidal efficacy or phytotoxicity) | 4 (90%-100% of herbicidal efficacy or phytotoxicity) | 4 (90%-100% of herbicidal efficacy or phytotoxicity) |  |  |  |  | 
COC(=O)N(c1ccccc1CN1CC(C(F)(F)F)OC1=O)S(=O)(=O)C(F)(F)F (stereo not shown) [1-151] | 4 (90%-100% of herbicidal efficacy or phytotoxicity) | 4 (90%-100% of herbicidal efficacy or phytotoxicity) |  | 3 | 1 (1%-39% of herbicidal efficacy or phytotoxicity) | 4 (90%-100% of herbicidal efficacy or phytotoxicity) | 3 (70%-89% of herbicidal efficacy or phytotoxicity) | 4 (90%-100% of herbicidal efficacy or phytotoxicity) |  |  |  |  | 
COC(=O)N(c1ccccc1CN1CC(C2CC2)(C2CC2)OC1=O)S(=O)(=O)C(F)(F)F [1-172] | 4 (90%-100% of herbicidal efficacy or phytotoxicity) | 4 (90%-100% of herbicidal efficacy or phytotoxicity) |  | 10 | 1 (1%-39% of herbicidal efficacy or phytotoxicity) | 4 (90%-100% of herbicidal efficacy or phytotoxicity) | 4 (90%-100% of herbicidal efficacy or phytotoxicity) | 4 (90%-100% of herbicidal efficacy or phytotoxicity) |  |  |  |  | 
COCC1(C)CN(Cc2ccccc2N(C(=O)OC)S(=O)(=O)C(F)(F)F)C(=O)O1 (stereo not shown) [1-147] |  |  |  | 10 |  |  | 4 (90%-100% of herbicidal efficacy or phytotoxicity) |  | 4 (90%-100% of herbicidal efficacy or phytotoxicity) | 4 (90%-100% of herbicidal efficacy or phytotoxicity) | 1 (1%-39% of herbicidal efficacy or phytotoxicity) | 4 (90%-100% of herbicidal efficacy or phytotoxicity) | 4 (90%-100% of herbicidal efficacy or phytotoxicity)
O=C1OC2(CCC2)CN1Cc1ccccc1NS(=O)(=O)C(F)(F)F [1-87] |  |  |  | 3 |  |  | 3 (70%-89% of herbicidal efficacy or phytotoxicity) |  | 4 (90%-100% of herbicidal efficacy or phytotoxicity) | 4 (90%-100% of herbicidal efficacy or phytotoxicity) | 1 (1%-39% of herbicidal efficacy or phytotoxicity) | 4 (90%-100% of herbicidal efficacy or phytotoxicity) | 4 (90%-100% of herbicidal efficacy or phytotoxicity)
COC(=O)N(c1ccccc1CN1CC(C)OC1=O)S(=O)(=O)C(F)(F)F (racemic) [1-54] | 4 (90%-100% of herbicidal efficacy or phytotoxicity) | 4 (90%-100% of herbicidal efficacy or phytotoxicity) | 4 (90%-100% of herbicidal efficacy or phytotoxicity) | 33.3 | 0 (0% of herbicidal efficacy or phytotoxicity) |  | 4 (90%-100% of herbicidal efficacy or phytotoxicity) | 4 (90%-100% of herbicidal efficacy or phytotoxicity) |  |  |  |  | 
CCC1(CC)CN(Cc2ccccc2N(C(=O)OC)S(=O)(=O)C(F)(F)F)C(=O)O1 [1-109] | 4 (90%-100% of herbicidal efficacy or phytotoxicity) | 4 (90%-100% of herbicidal efficacy or phytotoxicity) |  | ≧30 | 1 (1%-39% of herbicidal efficacy or phytotoxicity) | 4 (90%-100% of herbicidal efficacy or phytotoxicity) | 4 (90%-100% of herbicidal efficacy or phytotoxicity) | 4 (90%-100% of herbicidal efficacy or phytotoxicity) |  |  |  |  | 
